Assay results reported in ChEMBL document CHEMBL5649167, “The SUV4-20 inhibitor A-196 verifies a role for epigenetics in genomic integrity” (Nat Chem Biol, 2017).
Values belong to the compound of their own block, whether it stands above or below them.

What was measured:
[1] = target: Histone-lysine N-methyltransferase KMT5C (Homo sapiens, UniProt Q86Y97); experiment: Inhibition of human SUV420H2 using Biotin-tagged H4K20me1 and [3H-SAM] as substrate incubated for 2 hrs by scintillation proximity assay
[2] = target: Histone-lysine N-methyltransferase KMT5B (Homo sapiens, UniProt Q4FZB7); experiment: Inhibition of recombinant human 6His-(Tev)-G-SUV420H1 (69 to 335 residues) using Biotin-tagged H4K20me1 and [3H-SAM] as substrate incubated for 2 hrs by scintillation proximity assay
Substance-K receptor = target: T1, Substance-K receptor (Homo sapiens, UniProt P21452); experiment: Inhibition of human Substance-K receptor assessed as inhibition constant
T1 sequence (P21452 whole entry): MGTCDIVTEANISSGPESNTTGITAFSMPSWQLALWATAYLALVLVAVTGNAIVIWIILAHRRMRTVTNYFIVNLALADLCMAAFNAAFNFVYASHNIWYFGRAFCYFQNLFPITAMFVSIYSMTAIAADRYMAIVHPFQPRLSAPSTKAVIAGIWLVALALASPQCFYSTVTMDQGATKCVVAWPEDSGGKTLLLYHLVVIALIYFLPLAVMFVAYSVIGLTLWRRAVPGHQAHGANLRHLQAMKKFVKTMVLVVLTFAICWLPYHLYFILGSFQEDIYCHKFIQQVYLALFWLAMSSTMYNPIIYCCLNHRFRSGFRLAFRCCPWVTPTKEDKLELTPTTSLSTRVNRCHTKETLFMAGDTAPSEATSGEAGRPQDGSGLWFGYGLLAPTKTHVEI

[3] = Inhibition of H4K20me1 in human U2OS cells assessed as increase in methylation level incubated for 72 hrs by Hoechst staining based high content microscopy; format: functional, cell-based
[4] = Inhibition of H4K20me1 in human LNCaP cells incubated for 48 hrs by Western blotting analysis; format: functional, cell-based
[5] = Inhibition of human GABA-gated Cl- channel assessed as inhibition constant
[6] = Inhibition of H4K20me3 in human U2OS cells incubated for 48 hrs by Western blotting analysis; format: functional, cell-based
[7] = Inhibition of H4K20me3 in human PC-3 cells assessed as decrease in methylation level incubated for 72 hrs by Hoechst staining based high content microscopy; format: functional, cell-based; details: PC-3, 72 h
[8] = Inhibition of H4K20me1 in human U2OS cells incubated for 48 hrs by Western blotting analysis; format: functional, cell-based
B-cell [9] = experiment: Induction of DNA repair in mouse B cells assessed as inhibition in ability of splenic cells to switch from IgM to IgE at 10 uM incubated for 3 days in the presence of LPS plus IL-4 by flow cytometry analysis (Rvb=1.97%); format: functional; details: 72 h, time 3 day
[10] = Inhibition of H4K20me3 in human U2OS cells assessed as decrease in methylation level incubated for 72 hrs by Hoechst staining based high content microscopy; format: functional, cell-based
[11] = Inhibition of H4K20me2 in human LNCaP cells incubated for 48 hrs by Western blotting analysis; format: functional, cell-based
B-cell [12] = experiment: Induction of DNA repair in mouse B cells assessed as inhibition in ability of splenic cells to switch from IgM to IgG1 at 10 uM incubated for 2 days in the presence of LPS by flow cytometry analysis (Rvb=9.59%); format: functional; details: 48 h, time 2 day
PC-3 = experiment: Antiproliferative activity against human PC-3 cells assessed as change in number of nuclei incubated for 72 hrs by Hoechst staining based high content microscopy; format: functional, cell-based; details: PC-3, 72 h
B-cell [13] = experiment: Induction of DNA repair in mouse B cells assessed as inhibition in ability of splenic cells to switch from IgM to IgG1 at 1 uM incubated for 2 days in the presence of LPS by flow cytometry analysis (Rvb=9.59%); format: functional; details: 48 h, time 2 day
B-cell [14] = experiment: Induction of DNA repair in mouse B cells assessed as inhibition in ability of splenic cells to switch from IgM to IgG3 at 1 uM incubated for 4 days in the presence of LPS by flow cytometry analysis (Rvb=5.71%); format: functional; details: 96 h, time 4 day
[15] = Inhibition of H4K20me1 in human PC-3 cells assessed as increase in methylation level incubated for 72 hrs by Hoechst staining based high content microscopy; format: functional, cell-based; details: PC-3, 72 h
Adenosine receptor A2a = Adenosine receptor A2a (Homo sapiens, UniProt P29274); experiment: Inhibition of human Adenosine receptor A2a assessed as inhibition constant
[16] = target: Kappa-type opioid receptor (Homo sapiens, UniProt P41145); experiment: Inhibition of human Kappa-type opioid receptor assessed as inhibition constant
[17] = Inhibition of human 5-HT3 receptor expressed in HEK293T cells at 10 uM relative to control; details: HEK-293T
B-cell [18] = experiment: Induction of DNA repair in mouse B cells assessed as inhibition in ability of splenic cells to switch from IgM to IgE at 1 uM incubated for 3 days in the presence of LPS plus IL-4 by flow cytometry analysis (Rvb=1.97%); format: functional; details: 72 h, time 3 day
[19] = target: KV channel (voltage-gated potassium channel) (Homo sapiens, UniProt O43525+O43526+O95259+P16389+P17658+P22001+P22459+P22460+P48547+P51787+P56696+Q03721+Q09470+Q12809+Q14003+Q14721+Q16322+Q6PIU1+Q8NCM2+Q8TAE7+Q8TDN1+Q8TDN2+Q92953+Q96KK3+Q96L42+Q96PR1+Q96RP8+Q9BQ31+Q9H252+Q9H3M0+Q9NR82+Q9NS40+Q9NSA2+Q9NZV8+Q9UIX4+Q9UJ96+Q9UK17+Q9ULD8+Q9ULS6+Q9UQ05); experiment: Inhibition of human KV channel at 10 uM relative to control; format: protein assay
HFF [20] = experiment: Cytotoxicity against HFF cells assessed as cell viability at 1.5 to 100 uM incubated after 72 hrs; format: toxicity, cell-based; details: human, dose 1.5-100 µM
Adenosine receptor A1 = target: T2, Adenosine receptor A1 (Homo sapiens, UniProt P30542); experiment: Inhibition of human Adenosine receptor A1 assessed as inhibition constant
T2 sequence (P30542 whole entry): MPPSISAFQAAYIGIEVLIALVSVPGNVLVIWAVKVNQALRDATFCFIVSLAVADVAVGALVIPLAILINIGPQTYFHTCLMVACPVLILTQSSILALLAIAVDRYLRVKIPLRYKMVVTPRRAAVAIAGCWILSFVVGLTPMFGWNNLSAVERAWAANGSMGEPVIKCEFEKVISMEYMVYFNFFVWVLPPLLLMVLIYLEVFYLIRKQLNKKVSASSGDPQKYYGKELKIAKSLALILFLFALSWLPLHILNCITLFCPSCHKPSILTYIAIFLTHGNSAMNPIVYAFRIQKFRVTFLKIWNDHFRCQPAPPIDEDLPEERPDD

Adenosine receptor A3 = target: T3, Adenosine receptor A3 (Homo sapiens, UniProt P0DMS8); experiment: Inhibition of human Adenosine receptor A3 assessed as inhibition constant
T3 sequence (P0DMS8 whole entry): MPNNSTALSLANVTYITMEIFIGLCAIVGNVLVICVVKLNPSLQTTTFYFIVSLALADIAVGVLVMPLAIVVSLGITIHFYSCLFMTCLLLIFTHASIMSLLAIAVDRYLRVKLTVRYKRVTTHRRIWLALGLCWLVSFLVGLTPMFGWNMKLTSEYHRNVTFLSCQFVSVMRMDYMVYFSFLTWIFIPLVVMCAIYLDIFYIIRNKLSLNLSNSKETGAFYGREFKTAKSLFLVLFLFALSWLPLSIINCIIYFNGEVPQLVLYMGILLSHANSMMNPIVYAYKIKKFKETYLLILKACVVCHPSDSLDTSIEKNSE

MEF = experiment: Antiproliferative activity against mouse MEF cells assessed as loss of pericentric H4K20me3 at 10 uM incubated for 3 days by immunofluorescence analysis relative to control; format: functional; details: time 3 day
B-cell [21] = experiment: Induction of DNA repair in mouse B cells assessed as inhibition in ability of splenic cells to switch from IgM to IgG3 at 10 uM incubated for 4 days in the presence of LPS by flow cytometry analysis (Rvb=5.71%); format: functional; details: 96 h, time 4 day
HFF [22] = experiment: Cytotoxicity against HFF cells assessed as cell viability upto 12.5 uM incubated for 48 hrs; format: toxicity, cell-based; details: human
[23] = Inhibition of H4K20me3 in human LNCaP cells incubated for 48 hrs by Western blotting analysis; format: functional, cell-based
[24] = target: L-type calcium channel (verapamil binding site) (Homo sapiens, UniProt O60840+Q01668+Q13698+Q13936); experiment: Inhibition of human L-type calcium channel verapamil binding site at 10 uM relative to control; format: protein assay
U2OS = experiment: Antiproliferative activity against human U2OS cells assessed as change in number of nuclei incubated for 72 hrs by Hoechst staining based high content microscopy; format: functional, cell-based
[25] = Inhibition of H4K20me2 in human U2OS cells incubated for 48 hrs by Western blotting analysis; format: functional, cell-based
[26] = target: Delta-type opioid receptor (Homo sapiens, UniProt P41143); experiment: Inhibition of human Delta-type opioid receptor assessed as inhibition constant
Delta-type opioid receptor, sequence (P41143 whole entry): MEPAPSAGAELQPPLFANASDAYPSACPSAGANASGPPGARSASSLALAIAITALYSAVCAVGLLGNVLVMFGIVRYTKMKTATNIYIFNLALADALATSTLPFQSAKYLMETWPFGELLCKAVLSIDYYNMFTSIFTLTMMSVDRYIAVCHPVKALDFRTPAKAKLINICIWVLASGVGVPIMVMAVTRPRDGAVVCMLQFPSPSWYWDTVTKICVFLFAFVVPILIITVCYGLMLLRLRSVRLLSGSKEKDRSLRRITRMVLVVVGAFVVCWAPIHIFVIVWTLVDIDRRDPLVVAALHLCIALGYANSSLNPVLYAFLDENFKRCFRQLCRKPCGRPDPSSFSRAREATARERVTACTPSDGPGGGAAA

Histone-lysine N-methyltransferase KMT5C, sequence (Q86Y97 whole entry, the tested form may be a part): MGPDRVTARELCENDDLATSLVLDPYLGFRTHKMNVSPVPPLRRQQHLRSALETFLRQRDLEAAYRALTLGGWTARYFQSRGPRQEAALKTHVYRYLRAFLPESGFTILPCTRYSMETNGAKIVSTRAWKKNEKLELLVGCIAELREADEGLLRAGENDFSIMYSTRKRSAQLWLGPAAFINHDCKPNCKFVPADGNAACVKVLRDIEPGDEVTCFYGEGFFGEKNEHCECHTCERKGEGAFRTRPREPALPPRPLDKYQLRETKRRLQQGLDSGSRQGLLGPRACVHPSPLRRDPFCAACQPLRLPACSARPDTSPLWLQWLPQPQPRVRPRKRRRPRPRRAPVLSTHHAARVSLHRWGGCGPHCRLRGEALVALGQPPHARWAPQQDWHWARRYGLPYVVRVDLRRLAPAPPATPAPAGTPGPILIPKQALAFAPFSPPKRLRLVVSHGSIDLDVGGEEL
Histone-lysine N-methyltransferase KMT5B, sequence (Q4FZB7 whole entry, the tested form may be a part): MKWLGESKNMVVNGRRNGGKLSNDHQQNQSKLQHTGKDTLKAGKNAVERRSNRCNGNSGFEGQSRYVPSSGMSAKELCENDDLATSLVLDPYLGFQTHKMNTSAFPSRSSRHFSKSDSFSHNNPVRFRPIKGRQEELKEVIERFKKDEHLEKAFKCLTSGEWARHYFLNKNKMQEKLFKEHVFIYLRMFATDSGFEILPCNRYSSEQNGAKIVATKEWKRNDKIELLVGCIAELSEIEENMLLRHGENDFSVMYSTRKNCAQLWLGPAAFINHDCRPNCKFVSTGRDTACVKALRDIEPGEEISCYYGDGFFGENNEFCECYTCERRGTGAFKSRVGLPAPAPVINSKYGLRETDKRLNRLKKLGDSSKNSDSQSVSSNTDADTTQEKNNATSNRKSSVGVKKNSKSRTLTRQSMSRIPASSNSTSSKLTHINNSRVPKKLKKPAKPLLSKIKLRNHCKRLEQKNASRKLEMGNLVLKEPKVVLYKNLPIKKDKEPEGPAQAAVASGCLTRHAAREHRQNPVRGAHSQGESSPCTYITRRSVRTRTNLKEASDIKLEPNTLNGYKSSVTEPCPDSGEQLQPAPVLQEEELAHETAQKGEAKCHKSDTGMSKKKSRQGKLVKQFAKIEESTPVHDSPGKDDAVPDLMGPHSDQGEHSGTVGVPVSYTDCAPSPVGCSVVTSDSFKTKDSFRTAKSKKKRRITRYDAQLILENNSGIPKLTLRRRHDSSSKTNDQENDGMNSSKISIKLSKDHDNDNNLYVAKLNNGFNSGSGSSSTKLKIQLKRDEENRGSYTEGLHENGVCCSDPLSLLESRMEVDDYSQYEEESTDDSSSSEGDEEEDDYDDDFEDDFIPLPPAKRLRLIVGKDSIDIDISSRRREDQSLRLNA
Adenosine receptor A2a, sequence (P29274 whole entry): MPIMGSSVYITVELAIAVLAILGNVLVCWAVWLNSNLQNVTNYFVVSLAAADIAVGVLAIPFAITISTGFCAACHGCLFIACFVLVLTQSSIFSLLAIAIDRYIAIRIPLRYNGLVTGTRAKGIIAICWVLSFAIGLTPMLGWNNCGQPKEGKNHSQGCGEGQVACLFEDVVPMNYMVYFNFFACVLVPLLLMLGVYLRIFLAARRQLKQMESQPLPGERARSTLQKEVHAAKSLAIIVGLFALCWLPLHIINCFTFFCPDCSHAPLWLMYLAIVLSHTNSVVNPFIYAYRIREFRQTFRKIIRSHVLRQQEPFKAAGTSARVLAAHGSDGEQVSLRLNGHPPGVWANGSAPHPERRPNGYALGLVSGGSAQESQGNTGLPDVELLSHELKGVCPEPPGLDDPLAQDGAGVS
Kappa-type opioid receptor, sequence (P41145 whole entry): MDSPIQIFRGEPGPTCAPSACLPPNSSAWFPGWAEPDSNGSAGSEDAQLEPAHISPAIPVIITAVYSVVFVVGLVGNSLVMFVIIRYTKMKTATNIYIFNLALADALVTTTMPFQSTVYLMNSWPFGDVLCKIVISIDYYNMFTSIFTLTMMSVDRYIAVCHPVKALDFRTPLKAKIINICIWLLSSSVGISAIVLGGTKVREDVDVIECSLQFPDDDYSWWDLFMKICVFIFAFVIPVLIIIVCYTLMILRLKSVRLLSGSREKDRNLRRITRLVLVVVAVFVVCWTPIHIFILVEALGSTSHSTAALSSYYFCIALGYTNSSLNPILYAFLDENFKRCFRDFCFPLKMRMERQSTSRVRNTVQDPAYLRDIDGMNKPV

- IC50 [1]: 4800 nM
- IC50 [2]: 5900 nM
SMILES: Clc1ccc2c(NC3CCCC3)ccnc2c1

- Ki (Substance-K receptor): 4100 nM
- IC50 [3]: 1910 nM
- IC50 [4]: 799 nM
- Ki [5]: 1800 nM
- IC50 [6]: 370 nM
- IC50 [7]: 521 nM
- IC50 [8]: 736 nM
- IC50 [10]: 502 nM
- IC50 [11]: 511 nM
- IC50 (PC-3): > 20000 nM
- IC50 [15]: 686 nM
- Ki (Adenosine receptor A2a): 28 nM
- Ki [16]: > 10000 nM
- inhibition at 10 µM [19]: -18%
- Ki (Adenosine receptor A1): 21 nM
- Ki (Adenosine receptor A3): 2000 nM
- IC50 [1]: 144 nM
- IC50 [23]: 211 nM
- inhibition at 10 µM [24]: -4%
- IC50 (U2OS): > 20000 nM
- IC50 [25]: 262 nM
- Ki [26]: 9000 nM
- IC50 [2]: 25 nM
SMILES: Clc1cc2c(NC3CCCC3)nnc(-c3ccncc3)c2cc1Cl
- inhibition at 10 µM (B-cell [9]): 0.73%
- inhibition at 10 µM (B-cell [12]): 3.68%
- inhibition at 1 µM (B-cell [13]): 5.87%
- inhibition at 1 µM (B-cell [14]): 3.79%
- inhibition at 10 µM [17]: 32%
- inhibition at 1 µM (B-cell [18]): 1.47%
- Activity (HFF [20]): Non-Toxic
- Activity (MEF): 97%
- inhibition at 10 µM (B-cell [21]): 3.85%
- Activity (HFF [22]): Non-Toxic
